Test system: PGY-sRNA-26
Test: In vivo delivery study of lipid-nucleic acid mixture (oral gavage, RT-qPCR of PGY-sRNA-26 in tissues)
Parameters: species or system mouse
Conditions: C57BL/6 mice, gavage, 100 μg lipid: 10 nmol PGY-sRNA-26, 12 hours; for delivery efficacy over each tissue and blood tested (broad-spectrum delivery): all tissues and blood tested; for oral delivery of single-stranded sRNA nucleic acids into mouse intestinal tissue: intestine
Protocol: 10 nmol of small RNA (as shown in Table 2) was dissolved in 400 μl of DEPC-treated water in a glass tube, 10 μl of the corresponding lipid stock solution was added such that the lipid mass in the system was 100 μg. The mixture was mixed thoroughly, heated in a 90° C. water bath for 15 minutes, and then cooled naturally to obtain the lipid nucleic acid mixture of lipid and small RNA.
C57BL/6 male mice, approximately 6 weeks old, weighing 20-24 g, were obtained from Beijing Vital River Laboratory Animal Technology Co., Ltd. The mice were housed in the SPF-grade animal facility at the Animal Center of the Institute of Basic Medical Sciences, Chinese Academy of Medical Sciences. The mice were fasted for 12 hours before gavage administration.
The resultant lipid nucleic acid mixture was orally administered to each mouse at a dose of 100 μg lipid: 10 nmol single-stranded 3′-methylated small RNA PGY-sRNA-26.
• 1) Blank group (n=4): mice were administered with 500 μl saline by gavage, this group served as a blank control; • 2) Free uptake group (n=4): mice were directly administered with small RNA PGY-sRNA-26 solution (10 nmol/mouse, 500 μl) by gavage, this group served as a negative control; • 3) Lipid-treated group (n=4): mice were administered with 500 μl lipid nucleic acid mixture prepared in step 2 by gavage.
After 12 hours of gavage administration, 500 μl blood from the eyeball of each mouse was sampled, added to 1.5 ml Trizol Reagent LS (purchased from Invitrogen), thoroughly mixed for lysis. 3 ml of Trizol Reagent LSwas added to tissue samples and homogenized for complete lysis, wherein the sampled tissues include heart, liver, spleen, lung, kidney, stomach, intestine, brain, blood, femur. RNA was extracted from 1 ml of the blood or the tissue lysate following the steps below: • Centrifuge at 4° C., 12,000 rpm for 5 min, discard the precipitate, transfer Trizol to a new centrifuge tube; • Add chloroform at 200 μL chloroform/mL Trizol, shake well, stand at room temperature for 5 min; • Centrifuge at 4° C., 12,000 rpm for 15 min; • Take the upper aqueous phase to another centrifuge tube, add isopropanol at 0.4 mL isopropanol/mL Trizol, mix well, and stand at low temperature for 10-20 min; • Centrifuge at 4° C., 12,000 rpm for 15 min, discard the supernatant, RNA precipitated at the bottom of the tube; • Add 1 mL of 75% ethanol, gently shake the centrifuge tube, suspend the precipitate; • Centrifuge at 4° C., 12,000 rpm for 15 min, discard the supernatant, add 1 mL of 75% ethanol, gently shake the centrifuge tube, suspend the precipitate; • Centrifuge at 4° C., 12,000 rpm for 15 min, discard the supernatant, air-dry at room temperature, dissolve RNA samples in 50 μL RNase-free H2O, measure OD value to quantify RNA concentration. 3.3 Reverse Transcription of sRNA to cDNA:
The reverse transcription system is as follows: Template RNA (200 ng/μL) 10 μL, 10×RT Buffer 2.0 μL, 25×dNTP Mix (100 mM) 0.8 μL, U6 RT stem-loop primer (10 μM) 2.0 μL, PGY-sRNA-26 RT stem-loop primer (10 μM) 2.0 μL, MultiScribe™ Reverse Transcriptase (50 U/μL) 1.0 μL, RNAse Inhibitor (40 U/μL) 1.0 μL, nuclease-free H2O 1.2 μL. After transient centrifugation, the reverse transcription system was placed in a PCR machine with the following reaction conditions: (1) 25° C., 10 min; (2) 37° C., 120 min; (3) 85° C., 5 min; (4) 4° C., stop reaction. After the reaction, add 20 μL RNAse-free ddH2O, adjust the final volume to 40 μL. The stem-loop primers used in this reverse transcription process were synthesized by Beijing Tianyi Huiyuan Biotechnology Co., Ltd. (U6 was used as a standard reference gene to calculate its relative expression, because U6 RT primer was used as a reference gene in relative quantification of RT-qPCR reactions for small RNA): […]

SMILES	delivery efficacy over each tissue and blood tested (broad-spectrum delivery)	oral delivery of single-stranded sRNA nucleic acids into mouse blood	oral delivery of single-stranded sRNA nucleic acids into mouse femur	oral delivery of single-stranded sRNA nucleic acids into mouse heart tissue	oral delivery of single-stranded sRNA nucleic acids into mouse intestinal tissue	oral delivery of single-stranded sRNA nucleic acids into mouse kidney tissue	oral delivery of single-stranded sRNA nucleic acids into mouse liver tissue	oral delivery of single-stranded sRNA nucleic acids into mouse lung tissue	oral delivery of single-stranded sRNA nucleic acids into mouse spleen tissue	oral delivery of single-stranded sRNA nucleic acids into mouse stomach tissue	oral delivery of single-stranded sRNA nucleic acids into mouse brain tissue
C[C@]1(O)CC[C@H]2[C@@H]3CCC4=CC(=O)CC[C@]4(C)[C@@]3(F)[C@@H](O)C[C@@]21C [Lipid 532]	exhibited the best delivery efficacy	can effectively orally deliver	can effectively orally deliver	can effectively orally deliver	can effectively orally deliver	can effectively orally deliver	can effectively orally deliver	can effectively orally deliver	can effectively orally deliver	can effectively orally deliver	–
C[C@]12C=CC(=O)C=C1CC[C@@H]1[C@@H]2C(=O)C[C@@]2(C)[C@H]1CC[C@]2(O)C(=O)CO [Lipid 564]	–	can effectively orally deliver	can effectively orally deliver	can effectively orally deliver	can effectively orally deliver	can effectively orally deliver	can effectively orally deliver	can effectively orally deliver	can effectively orally deliver	can effectively orally deliver	can effectively orally deliver
C[C@]12CCC(=O)C=C1CC[C@H]1[C@@H]3CC[C@](O)(C(=O)CO)[C@@]3(C)C[C@H](O)[C@@]12F [Lipid 534]	exhibited the best delivery efficacy	can effectively orally deliver	can effectively orally deliver	can effectively orally deliver	can effectively orally deliver	can effectively orally deliver	can effectively orally deliver	can effectively orally deliver	can effectively orally deliver	can effectively orally deliver	can effectively orally deliver
C[C@H](CCC(=O)O)[C@H]1CC[C@H]2[C@@H]3[C@H](O)C[C@@H]4C[C@H](O)CC[C@]4(C)[C@H]3CC[C@]12C [Lipid 580]	–	can effectively orally deliver	can effectively orally deliver	can effectively orally deliver	can effectively orally deliver	–	can effectively orally deliver	can effectively orally deliver	can effectively orally deliver	can effectively orally deliver	can effectively orally deliver
CCC(=O)O[C@H]1CC[C@H]2[C@@H]3CCC4=CC(=O)CC[C@]4(C)[C@H]3CC[C@]12C [Lipid 568]	exhibited the best delivery efficacy	can effectively orally deliver	can effectively orally deliver	can effectively orally deliver	can effectively orally deliver	can effectively orally deliver	can effectively orally deliver	can effectively orally deliver	can effectively orally deliver	can effectively orally deliver	can effectively orally deliver
C[C@]12CC[C@H](O)C[C@H]1CC[C@@H]1[C@@H]2CC[C@]2(C)[C@@H](C3=CC(=O)OC3)CC[C@]12O [Lipid 559]	exhibited the best delivery efficacy	can effectively orally deliver	can effectively orally deliver	can effectively orally deliver	can effectively orally deliver	can effectively orally deliver	can effectively orally deliver	can effectively orally deliver	can effectively orally deliver	can effectively orally deliver	can effectively orally deliver

— patent US20240293551A1, “USE OF ST-TYPE LIPID COMPOUNDS IN PREPARATION OF NUCLEIC ACID DELIVERY REAGENT AND RELATED PRODUCT” (INSTITUTE OF BASIC MEDICAL SCIENCES CHINESE ACADEMY OF …, priority 2021, published 2024)
